Reference: PubChem BioAssay (NCI)
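Dose response: 5 concentrations. Exposure: 48 h. Format: 96-well plates. Endpoint: linear interpolation; highest concentration if not reached. GI50 is the concentration that inhibits growth by half. TGI is the concentration that stops growth completely.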

How the values were obtained:
Test in all cases: NCI-60 cell line screen, 48 h
OVCAR-4 ovarian = system: OVCAR-4 ovarian
RXF 393 renal = system: RXF 393 renal
IGROV1 ovarian = system: IGROV1 ovarian
A498 renal = system: A498 renal
HOP-62 NSCLC = system: HOP-62 NSCLC
MALME-3M melanoma = system: MALME-3M melanoma
SW-620 colon = system: SW-620 colon
SK-MEL-28 melanoma = system: SK-MEL-28 melanoma
SK-OV-3 ovarian = system: SK-OV-3 ovarian
MDA-MB-435 = system: MDA-MB-435

Row | Structure (SMILES) | TGI (OVCAR-4 ovarian) | TGI (RXF 393 renal) | TGI (IGROV1 ovarian) | TGI (A498 renal) | TGI (HOP-62 NSCLC) | TGI (MALME-3M melanoma) | TGI (SW-620 colon) | TGI (SK-MEL-28 melanoma) | TGI (SK-OV-3 ovarian) | TGI (MDA-MB-435) | GI50 (OVCAR-4 ovarian) | GI50 (SK-MEL-28 melanoma) | GI50 (IGROV1 ovarian) | GI50 (MDA-MB-435) | GI50 (A498 renal) | GI50 (MALME-3M melanoma) | GI50 (SK-OV-3 ovarian) | GI50 (SW-620 colon) | GI50 (RXF 393 renal) | GI50 (HOP-62 NSCLC)
1 | CNS(=O)(=O)NN(C)S(=O)(=O)c1ccc(Br)cc1 | > 100 µM | > 100 µM | > 100 µM | > 100 µM | > 100 µM | > 100 µM | > 100 µM | – | – | – | – | – | – | – | – | – | – | – | – | –
2 | CC(=O)OC[C@@H]1[C@H]2CC(=O)O[C@H]2C[C@H]1OC(C)=O | > 100 µM | > 100 µM | > 100 µM | > 100 µM | > 100 µM | > 100 µM | > 100 µM | > 100 µM | > 100 µM | – | – | – | – | – | – | – | – | – | – | –
3 | CCCN(CCC)C(=O)Cc1c2n(c3ccccc13)Cc1ccccc1-2 | > 100 µM | > 100 µM | – | – | > 100 µM | > 100 µM | > 100 µM | > 100 µM | > 100 µM | – | – | – | – | – | – | – | – | – | – | –
4 | CC(=S)NNC(=O)c1ccncc1 | > 100 µM | > 100 µM | > 100 µM | > 100 µM | > 100 µM | > 100 µM | > 100 µM | > 100 µM | > 100 µM | – | – | – | – | – | – | – | – | – | – | –
5 | COc1ccc(C=NC23CC4CC(CC(C4)C2)C3)cc1 | > 100 µM | > 100 µM | > 100 µM | > 100 µM | > 100 µM | > 100 µM | > 100 µM | > 100 µM | > 100 µM | – | – | – | – | – | – | – | – | – | – | –
6 | NC1CCC[C@@H](O)[C@H]1O (stereo partly drawn) | – | – | > 100 µM | > 100 µM | > 100 µM | > 100 µM | > 100 µM | > 100 µM | > 100 µM | > 100 µM | – | – | – | – | – | – | – | – | – | –
7 | Clc1cc(Cl)cc(N2N=C(c3cccc(Nc4ccncc4)c3)CC2c2ccc(Br)cc2)c1 (stereo not drawn) | 2.96 µM | – | 3.3 µM | 2.3 µM | – | 3.5 µM | 3.04 µM | 3.37 µM | 4.11 µM | 3 µM | 1.6 µM | 1.83 µM | 1.74 µM | 1.61 µM | 1.08 µM | 1.71 µM | 2.01 µM | 1.61 µM | – | –
8 | O=C(O)c1ccc([N+](=O)[O-])c2c(=O)c3ccccc3[nH]c12 | > 100 µM | > 100 µM | > 100 µM | > 100 µM | > 100 µM | > 100 µM | > 100 µM | – | > 100 µM | – | – | – | – | – | – | – | – | – | – | –
9 | COc1ccc(/C=C2\CNC/C(=C\c3ccc(OC)cc3)C2=O)cc1 | > 100 µM | 53.8 µM | > 100 µM | – | > 100 µM | > 100 µM | > 100 µM | > 100 µM | > 100 µM | – | – | – | – | – | – | – | – | – | – | –
10 | Cc1nn2c(/C=C3/C(=O)Nc4ccccc43)c(-c3ccc(Cl)cc3)nc2s1 | – | 42.8 µM | > 50 µM | > 50 µM | > 50 µM | – | > 50 µM | – | – | > 50 µM | – | – | 39.1 µM | 39.5 µM | > 50 µM | – | – | > 50 µM | 14.1 µM | 22.4 µM
11 | O=C1NC2(O)c3ccccc3C(=O)C2(O)N1c1ccccc1 (stereo not drawn) | > 100 µM | – | > 100 µM | – | – | > 100 µM | > 100 µM | > 100 µM | > 100 µM | – | – | – | – | – | – | – | – | – | – | –
12 | C=CCN=C1N=C(CC(=O)OCC)CS1 | > 100 µM | > 100 µM | > 100 µM | > 100 µM | > 100 µM | > 100 µM | > 100 µM | > 100 µM | > 100 µM | – | – | – | – | – | – | – | – | – | – | –
